pIC50: −log10 of the molar value.
Legend:
BCR-NTRK1 BaF3 cells = molecular target: T1, BCR-NTRK1 BaF3 cells (Homo sapiens, UniProt P04629); assay: BaF3 BCR-NTRK1 cell proliferation assay (ATPlite); type: cell-based; conditions: read-out: Inhibition of Cell Proliferation IC50, BCR/BaF3 TrkA
T1 construct: fused on or other part: P11274 (Breakpoint cluster region protein)
Experimental: (§1) Compounds are assessed in a variety of cell based assays. For example BaF3 cells engineered with any of BCR-FMS, BCR-KIT, BCR-FLT3, BCR-NTRK1, BCR-NTRK2, and BCR-NTRK3, are used in cell proliferation assays to assess inhibitory activity of Fms, Kit, Flt-3, TrkA, TrkB, and TrkC, respectively. An MV-4-11 (leukemia) cell proliferation assay is used to assess inhibitory activity in Flt-3, and SKNSH (human neuroblastoma) cell proliferation assay is used to assess efficacy of Fms/Trk inhibitors. Additional cells may be assayed similarly to assess the efficacy of Fms/Trk inhibitors, such as MiaPaCa (human pancreatic cancer) and Capan-1 (human pancreatic carcinoma) cells. Reagent and assay conditions are as follows: • BaF3 cells: • Maintained in RPMI containing 10% FBS, 1% PenStrep, 1% NEAA, and 1% L-Glutamine, supplemented with 1 mg/mL G418 and 5% WEHI-CM (or recombinant murine IL-3). • Confluent cells are split 1:50 to 1:100 every 3-4 days. • MV-4-11 cells: • Maintained in Iscove's Modified Dulbecco's Medium containing 10% FBS. • Confluent cells are split 1:4 every 3-4 days. • SKNSH cells: RPMI containing 10% FBS. On day 1, cells are counted, then centrifuged in a conical tube for 5 minutes at 1000 rpm. The supernatant is removed and cells are re-suspended as follows: • BaF3: resuspend in growth media +1 mg/mL G418 (without WEHFIL-3) to 2×10^5 cells/mL. • MV-4-11: resuspend in growth media to 5×10^5 cells/mL. • SKNSH: resuspend in growth media to 2×10^4 cells/mL. The cells are plated (50 μL, 150 μL for SKNSH cells) in each well of a 96-well dish (Corning 3610) and incubated at 37° C. in 5% CO2 overnight, cells plated to a final concentration of cells as follows: • BaF3: 10,000 cells per well. • MV-4-11: 25,000 cells per well. • SKNSH: 3,000 cells per well. On day 2, compound at a maximum concentration of 5 mM is serially diluted 1:3 for a total of 8 point titration with DMSO as a control. A 1 μL aliquot of each dilution point is added to 249 μL growth media and 50 μL is added to a well containing cells, providing 10 μM compound for the maximum concentration point. The cells are incubated for 3 days at 37° C. in 5% CO2. For SKNSH cells, a 0.75 μL aliquot of appropriate dilution in DMSO is added to 150 μL of cells. On day 5, ATPlite 1 step Luminescence Assay System (Perkin Elmer #6016739) is brought to room temperature along with the cell cultures. ATPlite is added to each well as follows: • BaF3: 25 μL per well. • MV-4-11: 40 μL per well. • SKNSH: 20 μL per well. The cells are incubated at room temperature for 10 minutes, then luminescence is read on Safire reader. The measured luminescence correlates directly with cell number, such that the reading as a function of compound concentration is used to determine the IC50 value.
(§2) It is understood that the results of these assays may vary as assay conditions are varied. Inhibition levels determined under the conditions described herein represent a relative activity for the compounds tested under the specific conditions employed. The cell based assays are likely to show variability due to the complexity of the system and the sensitivity thereof to any changes in the assay conditions. […] Results for compounds that are tested and show substantially no inhibition below the highest tested concentration are represented as “-” in the tables below. In some instances, the compounds were not tested in all of the assays, or assay results were not valid, as indicated by NA in the tables below.

BCR-KIT BaF3 cells = molecular target: T2, BCR-KIT BaF3 cells (Homo sapiens, UniProt P10721); assay: BaF3 BCR-KIT cell proliferation assay (ATPlite); type: cell-based; conditions: read-out: Inhibition of Cell Proliferation IC50, BCR/BaF3 Kit
T2 construct: fused on or other part: P11274 (Breakpoint cluster region protein)
Experimental: as §1, §2

CYP2D6 = CYP2D6 (Homo sapiens, UniProt P10635); assay: CYP2D6 inhibition (fluorescent substrate AMMC); type: in vitro ADME; conditions: read-out: Cyp IC50 2D6
Experimental: CYP (Cytochrome P450) enzymes are the major drug metabolizing enzymes present in the liver. The inhibition of CYP enzyme activity (IC50) for each of CYP1A2, CYP2C19, CYP2C9, CYP2D6, CYP3A4(BFC) and CYP3A4(BQ) is determined for compounds, where inhibition of metabolism of a known substrate leads to a decrease in the fluorescence of the metabolized product. The fluorescence of the product is monitored as a function of compound concentration. Compounds are dissolved in DMSO to a concentration of 100 mM. These are diluted 1 μL into 82 μL of acetonitrile. An 11 μL aliquot of this solution is then added to 204 μL of cofactor mix (1.3% NADPH Regeneration system Solution A, 1.04% NADPH Regeneration system Solution B from BD Biosciences, 5% acetonitrile and 0.05% DMSO). These are then serially diluted 1:1 (160 μL to 160 μL co-factor mix) for a total of 10 points. A 10 μL aliquot of this final mixture is dispensed into 384 well assay plates and incubated for 10 minutes at 37° C. […] Assay plates are incubated at 37° C. (CYP1A2-15 min; CYP2C9-45 min; CYP2C19, 2D6 and 3A4-30 min) and read in a Tecan Safire 2 plate reader (CYP1A2, 2C19 and 3A4 409 ex/460 em; CYP2C9 and 2D6 409 ex/530 em). The signal versus compound concentration is used to determine the IC50. The enzymes and substrates for this assay are obtained from BD Biosciences.

CYP2D6, sequence (P10635 whole entry): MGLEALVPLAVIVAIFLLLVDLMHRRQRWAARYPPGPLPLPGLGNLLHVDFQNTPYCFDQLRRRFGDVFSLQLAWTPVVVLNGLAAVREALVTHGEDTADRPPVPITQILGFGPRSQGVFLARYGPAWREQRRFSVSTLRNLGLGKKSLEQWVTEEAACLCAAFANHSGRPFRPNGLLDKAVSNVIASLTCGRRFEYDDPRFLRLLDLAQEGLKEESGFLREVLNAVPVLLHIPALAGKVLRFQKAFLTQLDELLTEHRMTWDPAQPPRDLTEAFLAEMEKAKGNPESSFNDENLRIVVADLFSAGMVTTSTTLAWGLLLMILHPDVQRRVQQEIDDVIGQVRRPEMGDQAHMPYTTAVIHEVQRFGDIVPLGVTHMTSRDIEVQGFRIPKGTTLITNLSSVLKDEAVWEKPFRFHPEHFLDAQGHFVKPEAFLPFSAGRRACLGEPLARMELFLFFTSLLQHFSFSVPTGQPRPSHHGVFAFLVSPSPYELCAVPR
T2 sequence (P10721 589-937): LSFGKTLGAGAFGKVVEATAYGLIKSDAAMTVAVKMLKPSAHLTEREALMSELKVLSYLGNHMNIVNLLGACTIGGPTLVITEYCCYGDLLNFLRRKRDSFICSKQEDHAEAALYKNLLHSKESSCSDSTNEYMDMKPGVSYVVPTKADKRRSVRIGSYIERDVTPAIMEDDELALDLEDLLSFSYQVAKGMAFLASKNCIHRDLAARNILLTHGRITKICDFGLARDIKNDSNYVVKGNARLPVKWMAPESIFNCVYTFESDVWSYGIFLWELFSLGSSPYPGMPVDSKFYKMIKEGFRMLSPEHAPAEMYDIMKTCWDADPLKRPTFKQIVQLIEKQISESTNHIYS
T1 sequence (P04629 510-781): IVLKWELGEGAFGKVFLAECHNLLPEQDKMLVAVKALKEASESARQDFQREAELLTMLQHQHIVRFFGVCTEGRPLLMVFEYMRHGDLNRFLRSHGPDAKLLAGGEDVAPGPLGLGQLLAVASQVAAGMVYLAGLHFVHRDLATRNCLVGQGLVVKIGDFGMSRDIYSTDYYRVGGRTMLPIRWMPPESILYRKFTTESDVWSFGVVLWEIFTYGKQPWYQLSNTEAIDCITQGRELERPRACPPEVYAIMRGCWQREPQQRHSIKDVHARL

| Compound | pIC50 (BCR-NTRK1 BaF3 cells) | pIC50 (BCR-KIT BaF3 cells) | pIC50 (CYP2D6) |
| --- | --- | --- | --- |
| CCc1ccc(Nc2ccc(C(=O)c3c[nH]c4ncnc(NCC(C)(C)O)c34)c(F)n2)cn1 [Compound P-4064, [6-[(6-ethyl-3-pyridyl)amino]-2-fluoro-3-pyridyl]-[4-[(2-hydroxy-2-methyl-propyl)amino]-7H-pyrrolo[2,3-d]pyrimidin-5-yl]methanone] | > 7.00 | > 7.00 | < 5.00 |
| CNc1ncnc2[nH]cc(C(=O)c3ccc(NC4CCC(F)(F)CC4)nc3Cl)c12 [Compound P-4058, [2-chloro-6-[(4,4-difluorocyclohexyl)amino]-3-pyridyl]-[4-(methylamino)-7H-pyrrolo[2,3-d]pyrimidin-5-yl]methanone] | > 6.00 | > 6.00 | < 5.00 |
| COc1ccc(Nc2ccc(C(=O)c3c[nH]c4ncnc(NCC5CCCO5)c34)c(F)n2)cn1 (stereo not drawn) [Compound P-4073, [2-fluoro-6-[(6-methoxy-3-pyridyl)amino]-3-pyridyl]-[4-(tetrahydrofuran-2-ylmethylamino)-7H-pyrrolo[2,3-d]pyrimidin-5-yl]methanone] | > 7.00 | > 6.00 | < 5.00 |
| CNc1ncnc2[nH]cc(C(=O)c3ccc(NC4CCC(F)(F)CC4)nc3)c12 [Compound P-4089, [6-[(4,4-difluorocyclohexyl)amino]-3-pyridyl]-[4-(methylamino)-7H-pyrrolo[2,3-d]pyrimidin-5-yl]methanone] | > 6.00 | > 6.00 | < 5.00 |
| Cc1cnc2[nH]cc(Cc3cnc(Nc4ccc(F)cc4)nc3)c2c1 [Compound P-3010, (4-Fluoro-phenyl)-[5-(5-methyl-1H-pyrrolo[2,3-b]pyridin-3-ylmethyl)-pyrimidin-2-yl]-amine] | < 5.00 | > 6.00 | < 5.00 |
| COc1cncc(Nc2ccc(C(=O)c3c[nH]c4ncnc(NC5CC5)c34)c(F)n2)c1 [Compound P-4107, [4-(cyclopropylamino)-7H-pyrrolo[2,3-d]pyrimidin-5-yl]-[2-fluoro-6-[(5-methoxy-3-pyridyl)amino]-3-pyridyl]methanone] | > 7.00 | > 6.00 | > 5.30 |
| COc1ccc(Nc2ccc(C(=O)c3c[nH]c4ncnc(N5CCOCC5)c34)c(F)n2)cn1 [Compound P-4070, [2-fluoro-6-[(6-methoxy-3-pyridyl)amino]-3-pyridyl]-(4-morpholino-7H-pyrrolo[2,3-d]pyrimidin-5-yl)methanone] | < 6.00 | < 6.00 | < 5.00 |
| COc1cncc(Nc2ccc(C(=O)c3c[nH]c4ncnc(NC5CCCCC5)c34)c(F)n2)c1 [Compound P-4104, [4-(cyclohexylamino)-7H-pyrrolo[2,3-d]pyrimidin-5-yl]-[2-fluoro-6-[(5-methoxy-3-pyridyl)amino]-3-pyridyl]methanone] | > 7.00 | < 6.00 | < 5.00 |
| Fc1cc(Cc2c[nH]c3ncnc(NC4CC4)c23)cnc1NC1CCC(F)(F)CC1 [Compound P-4127, N-cyclopropyl-5-[[6-[(4,4-difluorocyclohexyl)amino]-5-fluoro-3-pyridyl]methyl]-7H-pyrrolo[2,3-d]pyrimidin-4-amine] | > 6.00 | > 7.00 | < 5.00 |
| COc1cncc(Nc2ccc(C(=O)c3c[nH]c4ncnc(NCC(F)(F)F)c34)c(F)n2)c1 [Compound P-4103, [2-fluoro-6-[(5-methoxy-3-pyridyl)amino]-3-pyridyl]-[4-(2,2,2-trifluoroethylamino)-7H-pyrrolo[2,3-d]pyrimidin-5-yl]methanone] | > 6.00 | < 6.00 | < 5.00 |
| CC1CCC(Nc2ncc(Cc3c[nH]c4ncc(Cl)cc34)cn2)CC1 (stereo not drawn) [Compound P-3009, [5-(5-Chloro-1H-pyrrolo[2,3-b]pyridin-3-ylmethyl)-pyrimidin-2-yl]-(4-methyl-cyclohexyl)-amine] | < 5.00 | < 6.00 | < 5.00 |

Results, then the molecule that gave them:

| pIC50 (BCR-NTRK1 BaF3 cells) | pIC50 (BCR-KIT BaF3 cells) | pIC50 (CYP2D6) | Compound |
| --- | --- | --- | --- |
| > 8.00 | > 7.00 | > 5.30 | CNc1ncnc2[nH]cc(C(=O)c3ccc(Nc4ccc(C5CC5)nc4)nc3F)c12 [Compound P-4094, [6-[(6-cyclopropyl-3-pyridyl)amino]-2-fluoro-3-pyridyl]-[4-(methylamino)-7H-pyrrolo[2,3-d]pyrimidin-5-yl]methanone] |
| > 8.00 | > 7.00 | < 5.00 | CCc1ccc(Nc2ccc(C(=O)c3c[nH]c4ncnc(NCCOC)c34)c(F)n2)cn1 [Compound P-4119, [6-[(6-ethyl-3-pyridyl)amino]-2-fluoro-3-pyridyl]-[4-(2-methoxyethylamino)-7H-pyrrolo[2,3-d]pyrimidin-5-yl]methanone] |
| > 8.00 | > 6.00 | < 5.00 | Cc1ccc(Nc2ccc(C(=O)c3c[nH]c4ncnc(NC5CCCCC5)c34)c(F)n2)cn1 [Compound P-4111, [4-(cyclohexylamino)-7H-pyrrolo[2,3-d]pyrimidin-5-yl]-[2-fluoro-6-[(6-methyl-3-pyridyl)amino]-3-pyridyl]methanone] |
| > 8.00 | > 7.00 | < 5.00 | CCCNc1ncnc2[nH]cc(C(=O)c3ccc(Nc4ccc(OC)nc4)nc3F)c12 [Compound P-4068, [2-fluoro-6-[(6-methoxy-3-pyridyl)amino]-3-pyridyl]-[4-(propylamino)-7H-pyrrolo[2,3-d]pyrimidin-5-yl]methanone] |
| > 8.00 | > 7.00 | > 5.30 | CCc1ccc(Nc2ccc(C(=O)c3c[nH]c4ncnc(NC5CCCC5)c34)c(F)n2)cn1 [Compound P-4099, [4-(cyclopentylamino)-7H-pyrrolo[2,3-d]pyrimidin-5-yl]-[6-[(6-ethyl-3-pyridyl)amino]-2-fluoro-3-pyridyl]methanone] |
| > 8.00 | > 7.00 | < 5.00 | CNc1ncnc2[nH]cc(C(=O)c3ccc(NC4CCC(F)(F)CC4)nc3F)c12 [Compound P-4063, [6-[(4,4-difluorocyclohexyl)amino]-2-fluoro-3-pyridyl]-[4-(methylamino)-7H-pyrrolo[2,3-d]pyrimidin-5-yl]methanone] |
| > 8.00 | > 6.00 | < 5.00 | CCCNc1ncnc2[nH]cc(C(=O)c3ccc(Nc4ccc(C)nc4)nc3F)c12 [Compound P-4114, [2-fluoro-6-[(6-methyl-3-pyridyl)amino]-3-pyridyl]-[4-(propylamino)-7H-pyrrolo[2,3-d]pyrimidin-5-yl]methanone] |

From patent US8901118B2, “Compounds and methods for kinase modulation, and indications therefor” (Plexxikon Inc., priority 2010, dated 2014)
